Experimental data: patent US5614627A, “Quinazoline compounds” (Eisai Co., Ltd., priority 1993, dated 1997)
Where a name gives a salt, the structure may show the parent alone.

Target: T1, calmodulin-dependent cGMP-phosphodiesterase (CaM-PDE) (Sus scrofa, UniProt A0A5G2RLV3)
T1 construct: prepared from swine aorta; from tissue; host or cells: swine aorta
Test: enzyme-inhibitory activity with calmodulin-dependent cGMP-phosphodiesterase (CaM-PDE) obtained from swine aorta
Assay type: biochemical
Settings: 1 μM cGMP as substrate, 1 mM Ca++, calmodulin 250 U/ml, DMSO 4% or below
Description: Study on enzyme-inhibitory activity with calmodulin-dependent cGMP-phosphodiesterase obtained from swine aorta The enzyme activity of calmodulin-dependent cGMP-phosphodiesterase (hereinafter referred to CaM-PDE) prepared from swine aorta was determined according to the method of Thompson et al. The emzyme activity was determined in the presence of 1 mM of calcium ion (Ca^++) and calmodulin (250 U/ml) by the use of 1 μM of cGMP as the substrate. The compound of the present invention was dissolved in DMSO and added to the reaction liquid. The final concentration of DMSO in the reaction solution was adjusted to 4% or below. The preparation of the CaM-PDE was effected according to the method [[…]. and Saito, I., Isolation of cyclic nucleotide phosphodiesterase isozymes from pig aorta, Biochem. Pharmacol. in press] by the use of swine aorta. The CaM-PDE inhibitory activity of the compounds of the present invention as determined by the above method are given in Table 1.

Structure (SMILES): COc1cc2c(N3CCC(C(O)c4ccc(F)cc4)CC3)ncnc2c(OC)c1OC (stereo not drawn) [Example 58, 4-[4-(4-Fluoro-α-hydroxybenzyl)piperidino]-6,7,8-trimethoxyquinazolin]
- IC50: 2800 nM

Structure (SMILES): O=C(O)CCCCCNc1ncnc2ccc(Cl)cc12 [Example 10, 4-(5-Carboxypentyl)amino-6-chloroquinazolne]
- IC50: 53900 nM

Structure (SMILES): Clc1ccc2ncnc(NCCCn3ccnc3)c2c1 [Example 38, 6-Chloro-4-[3-(imidazol-1-yl)propyl]aminoquinazoline]
- IC50: 7900 nM

Structure (SMILES): COc1cc2c(NCCCCC#N)ncnc2c(OC)c1OC [Example 32, 4-(4-Cyanobutyl)amino-6,7,8-trimethoxyquinzaoline]
- IC50: 6400 nM

Structure (SMILES): CCCNc1ncnc2c(OC)c(OC)c(OC)cc12 [Example 40, 4-Propylamino-6,7-trimethoxyquinazoline]
- IC50: 170 nM

Structure (SMILES): COc1cc2c(N3CCC(C(=O)c4ccc(F)cc4)CC3)ncnc2c(OC)c1OC [Example 57, 4-[4-(4-Fluorobenzoyl)piperidino]-6,7,8-trimethoxyquinazoline]
- IC50: 11600 nM

Structure (SMILES): COc1cc2c(N(C)CCCC(=O)O)ncnc2c(OC)c1OC [Example 18, 4-[N-(3-Carboxypropyl)-N-methylaminol-]6,7,8, -trimethoxyquinazoline]
- IC50: 730 nM

Structure (SMILES): CCN(CC)c1ncnc2c(OC)c(OC)c(OC)cc12 [Example 41, 4-Diethylamino-6,7,8-trimethoxyquinazoline hydrochloride]
- IC50: 300 nM

Structure (SMILES): COc1cc2c(NCCCCCCC(=O)O)ncnc2c(OC)c1OC [Example 12, 4-(6-Carboxyhexyl)amino-6,7,8-trimethoxyquinazoline]
- IC50: 3500 nM

Structure (SMILES): CCN(CC)c1ncnc2c(OC)cc(OC)cc12 [Example 43, 4-Diethylamino-6,8-dimethoxyquinazoline hydrochloride]
- IC50: 740 nM

Structure (SMILES): COc1cc2c(NCCCCCCCC(=O)O)ncnc2c(OC)c1OC [Example 15, 4-(7-Carboxyheptyl)amino-6,7,8,-trimethoxyquinazoline]
- IC50: 3620 nM

Structure (SMILES): CCOC(=O)CCCCCNc1ncnc2c(OC)c(OC)c(OC)cc12 [Example 3, 4-(5-Ethoxycarbonylpentyl)amino-6,7,8-trimethoxyquinazoline]
- IC50: 2350 nM

Structure (SMILES): COc1cc2c(NCCC(=O)O)ncnc2c(OC)c1OC [Example 13, 4-(2-Carboxyethyl)amino-6,7,8-trimethoxyquinazoline]
- IC50: 2370 nM

Structure (SMILES): COc1cc2c(N3CCC(C(=O)O)CC3)ncnc2c(OC)c1OC [Example 20, 4-(4-Carboxypiperidino)-6,7,8-trimethoxyquinazoline]
- IC50: 420 nM

Structure (SMILES): COc1cc2c(NCCCC(=O)O)ncnc2c(OC)c1OC [Example 2, 4-(3-Carboxypropyl)amino-6,7,8-trimethoxyquinazoline]
- IC50: 480 nM

Structure (SMILES): COc1cc2c(NCCCO)ncnc2c(OC)c1OC [Example 35, 4-(3-Hydroxypropyl)amino-6,7.8-trimethoxyquinazoline]
- IC50: 1900 nM

Structure (SMILES): CCOC(=O)CCNc1ncnc2c(OC)c(OC)c(OC)cc12 [Example 7, 4-(2-Ethoxycarbonylethyl)amino-6,7,8-trimethoxyquinazoline]
- IC50: 4620 nM

Structure (SMILES): COc1cc2c(N3CCC(=O)CC3)ncnc2c(OC)c1OC [Example 61, 4-(4-Oxopiperidino)-6,7,8-trimethoxyquinazoline]
- IC50: 1100 nM

Structure (SMILES): COc1cc2c(N3CCOCC3)ncnc2c(OC)c1OC [Example 68, 4-Morpholino-6,7,8-trimethoxyquinazoline hydrochloride]
- IC50: 4000 nM

Structure (SMILES): COc1cc2c(N3CCC(O)CC3)ncnc2c(OC)c1OC [Example 62, 4-(4-Hydroxypiperidino)-6,7,8-trimethoxyquinazoline]
- IC50: 740 nM

Structure (SMILES): COc1cc2c(NCCCCC(=O)O)ncnc2c(OC)c1OC [Example 14, 4-(4-Carboxybutyl)amino-6,7,8-trimethoxyuinazoline]
- IC50: 1290 nM

Structure (SMILES): COc1cc2c(NCCCCCC(=O)O)ncnc2c(OC)c1OC [Example 16, 4-(5-Carboxypentyl)amino-6,7,8-trimethoxyquinazoline]
- IC50: 1650 nM

Structure (SMILES): CCN(CC)c1nc(Cl)nc2c(OC)c(OC)c(OC)cc12 [Example 51, 2-Chloro-4-diethylamino-6,7,8-trimethoxyquinazoline]
- IC50: 4300 nM

Structure (SMILES): COc1cc2c(N3CCN(c4ncccn4)CC3)ncnc2c(OC)c1OC [Example 65, 4-[4-(2-Pyrimidyl)piperazin-1-yl]-6,7,8-trimethoxyquinazoline]
- IC50: 10700 nM
